Patent US12558329B2 (New York University, priority 2021, dated 2026)
Entries after “also recorded” stand apart in the source; their conditions may differ. Peptide text beside a SMILES is read from it. * marks the point of attachment. Cbz = O=C(OCc1ccccc1)*

Experiments:
MIAPACA2 cells [1] = assay: 13C9-Tyr tracing in MIAPACA2 cells with the indicated reagents; assay type: cell-based, human
Excerpt: 4-HMA biosynthesis has only been described in some bacteria and in rabbits. […] The production of 4-HPPA occurs in the first step of tyrosine (Tyr) catabolism via tyrosine transaminase (TAT). In rabbits, 4-HMA was proposed to be synthesized from the degradation of tyramine and octopamine by dopamine β-hydroxylase (Dbh) and monoamine oxidase (Mao) (FIG. 9A)^13. Tyramine is also a Tyr-derived metabolite. Therefore, all known substrates required to generate 4-HMA are derived from Tyr. In addition, Tyr can also be made from phenylalanine (Phe) by Phe hydroxylase (PAH) in mammalian liver cells^14. To elucidate the human 4-HMA biosynthetic pathway, the fates of ^13C9-Tyr and ^13C6-Phe were traced in human cells. […] Additionally, the generation of 4-HMA by […] would result in the incorporation of a single ^18O at the Ca position of the carboxylic acid of 4-HMA (FIG. 9A). However, this was not observed by ^18O labelling (FIG. 8B). Therefore, it was unlikely that 4-HMA biosynthesis from octopamine and tyramine catabolism occurred in the present system.
Unexpectedly, 4-HMA levels also were lower in hyperoxic (21%) conditions compared to 3% O2, reflecting either decreased production or increased consumption of this metabolite at 21% O2.
Therefore, CoQ10 was used as an indirect readout of 4-HB production. To assess the ability of human cells to biosynthesize CoQ10, cells were labelled with ^13C6-Phe or ^13C9-Tyr. CoQ10 was completely biosynthesized from Tyr, but not Phe, in human cells (FIG. 11B).
(§1) For metabolomics, briefly, cells were washed in 4° C. 0.9% saline and metabolites were extracted with 46% methanol:23% H2O:[…] chloroform that contained a labelled amino acid standard mix (MSK-A2-1.2, Cambridge Isotope Laboratories, Inc.). Enzymatic assay samples were extracted using 80% methanol: 20% H2O that contained labelled amino acid standards. Extracts were placed into 1.5 mL Eppendorf tubes, vortexed at 4° C. for 10 min and centrifuged at 4° C. for 10 min at 17,200×g in a microcentrifuge. The aqueous phase was transferred to vials for GC-MS or Eppendorf tubes for LC-MS. Polar samples were evaporated in a SpeedVac and samples were resolved by GC-MS or LC-MS. Lipid samples were dried using a stream of N2 (for ^18O labelling studies) or air. Metabolite and lipid extracts were submitted to the NYULMC Metabolomics Core Resource Laboratory.
For polar metabolomics, the LC column was a Millipore ZIC-pHILIC (2.1×150 […], 5 μm bead size) coupled to a Dionex UltiMate 3000 system. The column oven temperature was held at 25° C. The flow rate was 100 μL/min, and the injection volume was 1 μL. Buffer A was 10 mM ammonium carbonate in water, pH 9, and Buffer B was neat acetonitrile. The gradient profile was 80-20% B (0-30 min), 20-80% B (30-31 min), and 80-80% B (31-42 min). MS Analyses were carried out on a Thermo Q Exactive HF mass spectrometer using a heated electrospray ionization (HESI) source. The method duration was 30 min using a polarity-switching, top 5 method. The spray voltage for both positive and negative ion modes was 3.5 kV. The capillary temperature was 320° C. with a maximum spray current of 100 ρA. The full MS scan was carried out at 120,000 resolution with a scan range of 67-1000 m/z. For ^18O2 labelling experiments, full MS scans were carried out at 240,000 resolution at the same scan range. Tandem MS spectra were obtained at 15,000 resolution. All data were acquired in profile mode. Peak heights were analyzed using Xcalibur (ThermoFisher Scientific).
Lipid metabolomics were acquired using a Waters CSH-C18 (2.1×100 mm, 1.7 μm) column coupled to a Dionex UltiMate 3000 system. The column oven temperature was held at 55° C. The flow rate was 300 μL/min and the injection volume was 1 μL. Buffer A was 60:40 acetonitrile:water, 0.1% formic acid and Buffer B was 90:10 isopropanol:acetonitrile, 10 mM ammonium formate. […]

MIAPACA2 cells [2] = assay: 18O2-GASSP labelling of MIAPACA2 cells treated with MG132, IOX1, DFO or ascorbate; assay type: cell-based, human
Experimental: As additional controls, MIAPACA2 cells were treated with an iron chelator (DFO, FIG. 5E-5F), a proteasome inhibitor (MG132) to induce proteotoxic stress, and physiological levels of ascorbate, an antioxidant, to determine the effects of ROS on ^18O-labelling. Labelling of ^18O γ-butyrobetaine was blocked by IOX1 and DFO, consistent with the fact that trimethyllysine hydroxylase (TMLH) is an iron-dependent dioxygenase (FIGS. 7A-7D). […] Total levels of ^18O labelled methionine sulfoxide increased upon MG132 treatment and decreased following ascorbate treatment (FIGS. 7I-7M)^10.
(§2) All steps involved in setting up labelling with ^18O2 were performed at room temperature and inside a chemical fume hood. The procedure may vary depending on the type and number of tissue culture plates in the chamber and the amount of media in the plates. Users must test the system by using ^16O2:CO2:N2 or other unlabelled gases to optimize conditions for their needs and avoid consumption of costly labelled gases. Cells were treated with or without 5 μM MG132, 500 μM IOX1, 250 μM DFO, or 70 μM ascorbate, before placing tissue culture plates into the modular incubator chamber (MIC) containing a wireless oxygen sensor and a 15 cm dish of water to maintain humidity. Next, the clamps were closed to form an air-tight seal between the lid and platform of the MIC. […] N2 flushing was repeated for a total of three times, or until the sensor in the chamber stabilized at 0% O2 for 10 minutes.
Next, the inlet valve was opened and the ^18O2:5% CO2:N2 gaseous mixture was flushed into the system at a rate of 2.5 L/min. Subsequently, the outlet valve was immediately opened to allow gas flow out of the chamber, and to release the pressure in the system. The chamber was injected with the ^18O2:5% CO2:N2 gaseous mixture for 1 minute before the inlet and outlet valves were closed simultaneously. The chamber was allowed to equilibrate for 5 minutes. This process was repeated seven times, or until the desired oxygen concentration was reached and was stable. For 3%, 1%, and 0.2% ^18O2 labelling studies, the chamber was infused with 5%:5%:90%, 1.5%:5%:93.5%, and 0.5%:5%:94.5% ^18O2:CO2:N2, respectively. The ^18O2-infused MIC was then placed in a 37° C., 5% CO2 tissue culture incubator for 24 hours. The oxygen concentration in the chamber was monitored regularly. Oxygen measurements after 20 hours was not feasible due to the battery life of the sensor. At the end of the experiment, the chamber was opened inside a chemical fume hood before metabolite extraction.
as §1
For polar metabolomics, the LC column was a Millipore ZIC-pHILIC (2.1×150 […], 5 μm bead size) coupled to a Dionex UltiMate 3000 system. The column oven temperature was held at 25° C. The flow rate was 100 μL/min, and the injection volume was 1 μL. Buffer A was 10 mM ammonium carbonate in water, pH 9, and Buffer B was neat acetonitrile. The gradient profile was 80-20% B (0-30 min), 20-80% B (30-31 min), and 80-80% B (31-42 min). MS Analyses were carried out on a Thermo Q Exactive HF mass spectrometer using a heated electrospray ionization (HESI) source. […]

human cells = assay: 18O2-GASSP labelling of human cells, untargeted polar metabolomics, with or without IOX1; assay type: cell-based; conditions: 18O labelling of the metabolite in cells treated with IOX1 (dioxygenase inhibitor), 24 hours
Experimental: To map the molecular fate of O2 in metabolic pathways in living cells, GASSP was used to carry out ^18O2 labelling in cell lines of different tissue origins at ^18O2 concentrations that represented physiological (3%), hypoxic (1%), and severely hypoxic (0.2%) oxygen tensions found in tissues and tumours^7. At the end of each run, polar metabolites were extracted and untargeted polar metabolomics using liquid chromatography-high resolution mass spectrometry (LC-MS) were carried out to identify metabolites labeled with ^18O.
A list of unique features identified by untargeted metabolomics that were >0.25% (natural abundance of ^18O is 0.2%) labelled by ^18O atoms in each cell line at each oxygen tension was generated. In addition, background signal was controlled by requiring that ^18O labeled peaks had to have a signal that was two-fold greater than naturally occurring isotopes found in non-labelled (^16O) metabolite cell extracts. To determine the proportion of unique ^18O labelled features that were due to dioxygenase activity, cells were treated with a pan-dioxygenase inhibitor (IOX1) at concentrations that inhibit iron-dependent dioxygenases, such as the HIF1α prolyl hydroxylases (FIGS. 5E-5F) and identified ^18O labelled polar metabolites. This list of ^18O metabolites was generated by identifying all features in the unlabelled samples, filtering these features against blank samples to remove background peaks, and calculating the fractional ^18O labelling with the assumption that a metabolite would have no more than three oxygen atoms labelled, followed by manual curation of labelled features (FIG. 1B and FIG. 5G). […] These ^18O-labelled features were termed the oxy-metabolome.
To determine the identities of the labeled metabolites, the list of ^18O labelled features was annotated to their corresponding unlabelled metabolites using retention time matching, tandem mass spectrometry (MS2) fragmentation patterns, and database searching.
as §2

| SMILES | IOX1 Sensitive (Yes/No) (human cells) | further results |
| --- | --- | --- |
| CC(=O)N(O)CCCCCNC(=O)CCC(=O)N(O)CCCCCNC(=O)CCC(=O)N(O)CCCCCN [DFO, N-[5-[[4-[5-[acetyl(hydroxy)amino]pentylamino]-4-oxobutanoyl]-hydroxyamino]pentyl]-N′-(5-aminopentyl)-N′-hydroxybutanediamide] |  | 13C9-Tyr-derived 4-HMA (MIAPACA2 cells [1]; 3% 16O2, 24 hours): attenuated or ablated; also recorded: severely inhibited; CoQ10 labelling from 13C9-Tyr (incorporation of tyrosine into CoQ10) (MIAPACA2 cells [1]; 3% 16O2, 24 hours): eliminated; also recorded: completely blocked; 4-HPLA pools (MIAPACA2 cells [1]; 13C-Tyr, 3% O2, 24 hours): increased; 18O labelling of methionine (MIAPACA2 cells [2]; 3%, 1%, 0.2% 18O2, 24 hours): less sensitive; also recorded: only partially blocked; 18O labelling of γ-butyrobetaine (MIAPACA2 cells [2]; 3%, 1%, 0.2% 18O2, 24 hours): sensitive; also recorded: blocked; 18O labelling of 4-HMA (MIAPACA2 cells [2]; MIAPACA2, 3%, 1%, 0.2% 18O2, 24 hours, 500 μM IOX1, 250 μM DFO): sensitive; also recorded: significantly attenuated; 4-HMA levels (MIAPACA2 cells [2]; MIAPACA2, 18O2 labelling, 24 hours, 500 μM IOX1, 250 μM DFO, 70 μM ascorbate): significantly attenuated |
| CC(C)C[C@@H](C=O)NC(=O)[C@H](CC(C)C)NC(=O)[C@H](CC(C)C)NC(=O)OCc1ccccc1 [MG132] (Cbz-Leu-Leu-Leu-aldehyde) |  | Total levels of 18O labelled methionine sulfoxide (MIAPACA2 cells [2]; 5 μM MG132, 70 μM ascorbate, 24 hours): increased |
| CCCCC(=O)O[C@H](CC(=O)[O-])C[N+](C)(C)C [Metabolite 4, Valerylcarnitine] | Yes |  |
| CSCC[C@H](N)C(=O)O [Metabolite 13, Methionine] | Yes |  |
| CC(=O)N[C@H]1C(O)O[C@H](CO)[C@@H](O)[C@@H]1O (stereo partly drawn) [Metabolite 16, N-Acetyl-D-glucosamine] | No |  |
| CC(=O)N[C@@H](CO)[C@@H](O)[C@@H](O)[C@H](O)CO [Metabolite 17, N-Acetyl-D-galactosaminitol] | Yes |  |
| C[N+](C)(C)CCCC(=O)[O-] [Metabolite 21, g-Butyrobetaine] | Yes |  |
| C[S+]([O-])CC[C@H](N)C(=O)O (some centres unmarked) [Metabolite 23, Methionine Sulfoxide] | Yes |  |
| O=C(O)[C@@H]1C[C@@H](O)CN1 [Metabolite 24, Hydroxyproline] | Yes |  |
| NC(=O)C1=CN([C@@H]2O[C@H](COP(=O)(O)OP(=O)(O)OC[C@H]3O[C@@H](n4cnc5c(N)ncnc54)[C@H](O)[C@@H]3O)[C@@H](O)[C@H]2O)C=CC1 [Metabolite 28, NADH] | Yes |  |
| CN(CC(=O)O)C(=N)N [Metabolite 29, Creatine] | Yes |  |
| NCCS(=O)O [Metabolite 32, Hypotaurine] | Yes |  |
| N[C@@H](CCC(=O)O)C(=O)O [Metabolite 33, Glutamate] | Yes |  |
| O=c1ccn([C@@H]2O[C@H](COP(=O)(O)O)[C@@H](O)[C@H]2O)c(=O)[nH]1 [Metabolite 36, UMP] | Yes |  |
| C[S+](CC[C@H](N)C(=O)[O-])C[C@H]1O[C@@H](n2cnc3c(N)ncnc32)[C@H](O)[C@@H]1O (some centres unmarked) [Metabolite 41, S-adenosyl methionine] | Yes |  |
| N[C@@H](CCSC[C@H](N)C(=O)O)C(=O)O [Metabolite 42, Cystathionine] | Yes |  |
| O=C[C@@H](O)[C@@H](O)[C@H](O)[C@H](O)COP(=O)(O)O [Metabolite 46, D-Mannose 6-phosphate] | Yes |  |
